Data published in article PMC6199744, “Development of Chemical Proteomics for the Folateome and Analysis of the Kinetoplastid Folateome” (ACS Infectious Diseases, 2018).
Like-named read-outs stand apart in the source and are kept apart here.

Experiments:
Assay type in all cases: binding
[1] = molecular target: T1, HeLa cell extract proteins (Homo sapiens, UniProt Q9NVE7)
T1 construct: endogenous in cells; host or cells: HeLa cell extract
T1 sequence (Q9NVE7 1-773): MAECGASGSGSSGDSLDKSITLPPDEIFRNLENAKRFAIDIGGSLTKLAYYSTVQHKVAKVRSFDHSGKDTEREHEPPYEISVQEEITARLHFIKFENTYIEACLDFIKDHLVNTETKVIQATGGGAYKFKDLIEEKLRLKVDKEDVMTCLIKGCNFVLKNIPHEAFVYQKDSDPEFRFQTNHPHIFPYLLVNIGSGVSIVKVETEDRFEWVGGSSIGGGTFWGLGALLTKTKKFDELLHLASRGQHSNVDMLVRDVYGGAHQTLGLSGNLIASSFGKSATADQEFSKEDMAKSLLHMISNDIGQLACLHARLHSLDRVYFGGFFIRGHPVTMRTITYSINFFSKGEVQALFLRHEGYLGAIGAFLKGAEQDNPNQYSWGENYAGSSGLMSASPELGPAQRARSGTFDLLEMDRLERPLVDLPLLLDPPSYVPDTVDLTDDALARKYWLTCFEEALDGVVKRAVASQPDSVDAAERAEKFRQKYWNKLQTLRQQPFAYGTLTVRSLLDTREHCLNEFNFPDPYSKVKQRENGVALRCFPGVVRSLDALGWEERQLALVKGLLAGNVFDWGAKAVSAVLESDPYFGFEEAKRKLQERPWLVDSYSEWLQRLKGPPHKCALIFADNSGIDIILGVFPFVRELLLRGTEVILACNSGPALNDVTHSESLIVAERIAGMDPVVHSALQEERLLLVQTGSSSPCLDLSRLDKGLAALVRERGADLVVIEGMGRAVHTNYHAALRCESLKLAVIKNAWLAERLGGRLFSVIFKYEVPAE

[2] = molecular target: T2, HeLa cell extract proteins (Homo sapiens, UniProt Q9NR09)
T2 construct: endogenous in cells; host or cells: HeLa cell extract

[3] = molecular target: T3, HeLa cell extract proteins (Homo sapiens, UniProt Q96QK1)
T3 construct: endogenous in cells; host or cells: HeLa cell extract

[4] = molecular target: T4, HeLa cell extract proteins (Homo sapiens, UniProt Q7L8L6)
T4 construct: endogenous in cells; host or cells: HeLa cell extract
T4 sequence (Q7L8L6 28-764): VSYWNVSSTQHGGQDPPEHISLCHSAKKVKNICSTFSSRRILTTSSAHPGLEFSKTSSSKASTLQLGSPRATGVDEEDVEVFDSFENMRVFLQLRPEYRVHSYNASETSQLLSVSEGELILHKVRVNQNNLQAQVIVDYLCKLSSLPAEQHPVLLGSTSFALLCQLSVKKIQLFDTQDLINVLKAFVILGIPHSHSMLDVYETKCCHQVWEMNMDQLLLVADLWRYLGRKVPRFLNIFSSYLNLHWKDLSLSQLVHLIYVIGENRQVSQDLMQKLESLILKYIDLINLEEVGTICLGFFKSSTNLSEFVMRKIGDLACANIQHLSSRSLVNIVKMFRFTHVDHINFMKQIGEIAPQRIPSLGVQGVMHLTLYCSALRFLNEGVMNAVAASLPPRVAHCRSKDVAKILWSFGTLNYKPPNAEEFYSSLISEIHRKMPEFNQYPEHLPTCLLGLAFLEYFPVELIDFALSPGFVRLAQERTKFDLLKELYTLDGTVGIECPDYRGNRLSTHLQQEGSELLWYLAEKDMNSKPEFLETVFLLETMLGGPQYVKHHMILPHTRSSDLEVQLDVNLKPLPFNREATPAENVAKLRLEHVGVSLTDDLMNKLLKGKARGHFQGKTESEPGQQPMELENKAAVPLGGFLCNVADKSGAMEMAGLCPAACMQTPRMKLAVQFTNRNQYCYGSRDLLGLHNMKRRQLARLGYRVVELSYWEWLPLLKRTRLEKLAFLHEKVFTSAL

[5] = molecular target: T5, HeLa cell extract proteins (Homo sapiens, UniProt P26639)
T5 construct: endogenous in cells; host or cells: HeLa cell extract
T5 sequence (P26639 1-723): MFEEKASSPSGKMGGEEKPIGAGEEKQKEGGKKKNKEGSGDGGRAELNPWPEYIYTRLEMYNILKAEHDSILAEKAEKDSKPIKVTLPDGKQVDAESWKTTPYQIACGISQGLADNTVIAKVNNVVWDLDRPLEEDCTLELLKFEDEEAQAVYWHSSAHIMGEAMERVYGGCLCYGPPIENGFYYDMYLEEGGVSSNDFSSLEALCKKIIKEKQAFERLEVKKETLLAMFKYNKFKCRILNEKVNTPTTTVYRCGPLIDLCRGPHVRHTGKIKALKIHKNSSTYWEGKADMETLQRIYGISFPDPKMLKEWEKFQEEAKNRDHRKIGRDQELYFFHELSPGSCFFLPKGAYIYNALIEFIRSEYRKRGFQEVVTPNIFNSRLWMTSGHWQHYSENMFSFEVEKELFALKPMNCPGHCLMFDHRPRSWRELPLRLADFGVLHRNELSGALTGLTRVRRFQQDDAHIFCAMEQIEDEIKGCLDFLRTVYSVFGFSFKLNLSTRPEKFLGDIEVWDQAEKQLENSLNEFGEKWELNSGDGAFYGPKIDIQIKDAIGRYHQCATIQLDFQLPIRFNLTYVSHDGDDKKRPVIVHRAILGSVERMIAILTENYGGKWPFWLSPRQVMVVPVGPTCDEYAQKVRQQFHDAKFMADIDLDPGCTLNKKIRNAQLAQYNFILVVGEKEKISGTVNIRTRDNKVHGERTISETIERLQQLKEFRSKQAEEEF

[6] = molecular target: T6, HeLa cell extract proteins (Homo sapiens, UniProt O15397)
T6 construct: endogenous in cells; host or cells: HeLa cell extract
T6 sequence (O15397 whole entry): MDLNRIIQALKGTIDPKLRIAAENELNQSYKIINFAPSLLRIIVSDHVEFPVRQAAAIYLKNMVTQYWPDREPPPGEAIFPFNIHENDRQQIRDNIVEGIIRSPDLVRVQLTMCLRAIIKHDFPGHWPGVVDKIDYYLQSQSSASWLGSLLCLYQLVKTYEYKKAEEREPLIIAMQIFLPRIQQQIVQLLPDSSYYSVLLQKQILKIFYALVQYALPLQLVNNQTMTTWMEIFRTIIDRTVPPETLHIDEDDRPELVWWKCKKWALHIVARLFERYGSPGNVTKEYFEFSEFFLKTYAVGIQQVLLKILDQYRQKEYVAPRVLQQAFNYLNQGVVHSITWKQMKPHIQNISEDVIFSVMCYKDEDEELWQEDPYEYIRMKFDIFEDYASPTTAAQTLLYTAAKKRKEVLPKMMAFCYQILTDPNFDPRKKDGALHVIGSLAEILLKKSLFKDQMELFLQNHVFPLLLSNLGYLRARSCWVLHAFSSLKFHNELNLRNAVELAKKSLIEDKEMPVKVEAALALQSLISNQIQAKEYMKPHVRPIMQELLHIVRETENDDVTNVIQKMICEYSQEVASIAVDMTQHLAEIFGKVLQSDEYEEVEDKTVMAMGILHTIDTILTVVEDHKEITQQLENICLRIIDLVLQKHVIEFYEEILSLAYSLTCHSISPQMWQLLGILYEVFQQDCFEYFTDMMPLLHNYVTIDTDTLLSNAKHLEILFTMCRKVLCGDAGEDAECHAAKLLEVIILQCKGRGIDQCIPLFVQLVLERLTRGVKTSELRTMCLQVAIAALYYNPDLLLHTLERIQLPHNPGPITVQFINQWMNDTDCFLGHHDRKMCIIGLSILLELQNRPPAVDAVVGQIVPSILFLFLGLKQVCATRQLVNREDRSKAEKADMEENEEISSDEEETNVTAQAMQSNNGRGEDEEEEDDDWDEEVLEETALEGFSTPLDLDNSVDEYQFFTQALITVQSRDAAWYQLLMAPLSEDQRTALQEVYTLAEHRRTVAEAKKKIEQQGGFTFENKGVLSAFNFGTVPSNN

[7] = molecular target: T7, HeLa cell extract proteins (Homo sapiens, UniProt P15104)
T7 construct: endogenous in cells; host or cells: HeLa cell extract
T7 sequence (P15104 whole entry): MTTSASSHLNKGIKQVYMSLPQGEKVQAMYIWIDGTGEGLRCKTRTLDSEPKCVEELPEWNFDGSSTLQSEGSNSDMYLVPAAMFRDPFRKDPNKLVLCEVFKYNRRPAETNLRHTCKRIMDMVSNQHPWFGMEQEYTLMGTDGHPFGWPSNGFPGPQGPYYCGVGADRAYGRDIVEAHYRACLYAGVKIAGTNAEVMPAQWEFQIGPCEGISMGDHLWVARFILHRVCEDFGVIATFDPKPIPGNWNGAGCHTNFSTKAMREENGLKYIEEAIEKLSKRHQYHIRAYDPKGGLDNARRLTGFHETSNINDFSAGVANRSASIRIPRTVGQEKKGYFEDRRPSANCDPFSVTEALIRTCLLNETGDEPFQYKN

[8] = HeLa, protein BIRC6 (B[…] REPEAT-CONTAINING 6)

Nc1nc2cccc(-c3ccccc3)c2n1Cc1ccc(Cl)c(Cl)c1 [compound 3]
fold changes relative to vehicle control ([1]; captured protein PANK4, HeLa): 1.02 | fold changes relative to vehicle control ([2]; HeLa, protein BIRC6): 1.12 | fold changes relative to vehicle control ([3]; protein VPS35, HeLa): 0.96 | fold changes relative to vehicle control ([4]; captured protein FASTKD5, HeLa): 1.06 | fold changes relative to vehicle control ([5]; protein TARS, HeLa): 0.98 | fold changes relative to vehicle control ([6]; captured protein IPO8, HeLa): 0.6 | fold changes relative to vehicle control ([7]; captured protein GLUL, HeLa): 0.88

CCCCCCOc1ccc(Cc2cnc(N)nc2N)cc1 [compound 1]
fold changes relative to vehicle control ([1]; captured protein PANK4, HeLa): 0.98 | fold changes relative to vehicle control ([2]; HeLa, protein BIRC6): 1.06 | fold changes relative to vehicle control ([3]; protein VPS35, HeLa): 1.13 | fold changes relative to vehicle control ([4]; captured protein FASTKD5, HeLa): 1.07 | fold changes relative to vehicle control ([5]; protein TARS, HeLa): 1.27 | fold changes relative to vehicle control ([6]; captured protein IPO8, HeLa): 0.55 | fold changes relative to vehicle control ([7]; captured protein GLUL, HeLa): 0.97

NCCCNc1ccc(C(=O)NC(CCC(=O)O)C(=O)O)cc1 (stereo not shown) [compound 7]
fold changes relative to vehicle control ([1]; HeLa, captured protein PANK4): 1.04 | fold changes relative to vehicle control [2, 8]: 1.12 | fold changes relative to vehicle control ([3]; HeLa, protein VPS35): 1.1 | fold changes relative to vehicle control ([4]; HeLa, protein FASTKD5): 0.97 | fold changes relative to vehicle control ([5]; HeLa, protein TARS): 0.97 | fold changes relative to vehicle control ([6]; protein IPO8, HeLa): 0.82 | fold changes relative to vehicle control ([7]; HeLa, protein GLUL): 1.07

CCCCCCOc1cccc(Cc2cnc(N)nc2N)c1 [compound 2]
fold changes relative to vehicle control ([1]; captured protein PANK4, HeLa): 1.12 | fold changes relative to vehicle control ([2]; HeLa, protein BIRC6): 0.92 | fold changes relative to vehicle control ([3]; protein VPS35, HeLa): 1.7 | fold changes relative to vehicle control ([4]; captured protein FASTKD5, HeLa): 0.94 | fold changes relative to vehicle control ([5]; protein TARS, HeLa): 2.02 | fold changes relative to vehicle control ([6]; captured protein IPO8, HeLa): 0.8 | fold changes relative to vehicle control ([7]; captured protein GLUL, HeLa): 1.02

NCCOCCOCC(=O)Nc1nc2ncc(CNc3ccc(C(=O)NC(CCC(=O)O)C(=O)O)cc3)nc2c(=O)[nH]1 (stereo not shown) [compound 6]
fold changes relative to vehicle control ([1]; HeLa, captured protein PANK4): 0.96 | fold changes relative to vehicle control [2, 8]: 1.06 | fold changes relative to vehicle control ([3]; HeLa, protein VPS35): 1.15 | fold changes relative to vehicle control ([4]; HeLa, protein FASTKD5): 0.88 | fold changes relative to vehicle control ([5]; HeLa, protein TARS): 1.12 | fold changes relative to vehicle control ([6]; protein IPO8, HeLa): 0.91 | fold changes relative to vehicle control ([7]; HeLa, protein GLUL): 0.81

Nc1nc2[nH]cc(CCc3ccc(C(=O)N[C@@H](CCC(=O)O)C(=O)O)cc3)c2c(=O)[nH]1 [PTX, pemetrexed]
fold changes relative to vehicle control [1]: 0.93 | fold changes relative to vehicle control [2]: 1 | fold changes relative to vehicle control [3]: 1.05 | fold changes relative to vehicle control [4]: 0.84 | fold changes relative to vehicle control [5]: 1.02 | fold changes relative to vehicle control [6]: 0.83 | fold changes relative to vehicle control [7]: 0.84

Nc1nc2c(c(=O)[nH]1)N(C=O)C(CNc1ccc(C(=O)N[C@@H](CCC(=O)O)C(=O)O)cc1)CN2 (stereo partly shown) [LEU, leucovorin]
fold changes relative to vehicle control ([1]; HeLa, captured protein PANK4): 0.97 | fold changes relative to vehicle control [2, 8]: 1.08 | fold changes relative to vehicle control ([3]; HeLa, protein VPS35): 0.91 | fold changes relative to vehicle control ([4]; HeLa, protein FASTKD5): 0.87 | fold changes relative to vehicle control ([5]; HeLa, protein TARS): 1.03 | fold changes relative to vehicle control ([6]; protein IPO8, HeLa): 0.86 | fold changes relative to vehicle control ([7]; HeLa, protein GLUL): 0.62
